Source: ChEMBL document CHEMBL3507680, “University of Dundee, Gates Library screen for HepG2 cell viability”

Test: Human HepG2 cell viability assay in 384 well format
Type: toxicity, cell-based
Parameters: dose 125 nL, time 70.5 hour; cytotoxicity at 70.5 h: concentration not given beside the values
Details: HepG2 cells, read-out: Inhibition

Compound	cytotoxicity at 70.5 h
Cc1nc(C)n(CC2CCCN(CC(=O)NC3CCOCC3)C2)n1 (stereo unspecified)	3.14%
CSC(C)C(=O)N(C)CC(=O)Nc1ccc(Br)cn1 (stereo unspecified)	-3.72%
O=C(c1nn(-c2ccccc2F)cc1O)N1CCC2(CC1)OCCO2	13.2%
CCOCC1CN(CC2CC2)Cc2nn(CC3CC3)cc21 (stereo unspecified)	6.53%
CCC(=O)Nc1cccc(OCC(=O)N(C)Cc2nccn2CC)c1	-2.37%
Cc1ccc(C)c(CS(=O)(=O)CC(=O)NC(C)c2ccc(F)cc2F)c1 (stereo unspecified)	8.01%
CCOCCN1CCN(CCOC)CC1C (stereo unspecified)	-8.63%
CCOC(=O)N1CCN(c2nc(N)c3ccccc3n2)CC1	-7.74%
CC(C)CCN1CCCC(Cn2cc(CCO)nn2)C1 (stereo unspecified)	-2.37%
CC(C)c1cncnc1N1CC[C@H](N2CCOCC2)[C@H](CCCO)C1	-9.63%
CCN1CC(C(=O)N2CCN(CCn3cccc3)CC2)CC1=O (stereo unspecified)	18.1%
CN1CCN(Cc2ccccc2Oc2ccc(C(N)=O)cn2)CC1	-6.47%
Cc1cc(C)nc(N2CCN(C(=O)c3cc(Cl)c[nH]3)CC2)n1	-9.1%
Cc1ccc(-c2nnc(CN3CCn4c(nnc4C4CC4)C3)o2)cc1	-8.76%
COc1cccc(-c2nc(CC(=O)NC3(C)CCS(=O)(=O)C3)cs2)c1 (stereo unspecified)	-8.05%
O=C(NC[C@H]1OC[C@@H]2CCN(C(=O)c3ccco3)C[C@@H]21)C1CC1	-6.37%
Cc1noc(C)c1CNC(=O)N1CCC(NS(C)(=O)=O)CC1	-3.15%
CCCn1nc2c(cc1=O)CN(CC(=O)Nc1cc(C)no1)CC2	-7.27%
Cc1nc(C)n(CC2CCCN2CC(=O)N(C)Cc2ccc(C)o2)n1 (stereo unspecified)	-4.56%
CC(C)(C)c1cc(NC(=O)CN2CCCCC2Cn2cncn2)on1 (stereo unspecified)	-5.88%
CN(CC1COc2ccccc2O1)C(=O)c1ccc(-c2cn[nH]c2)nc1 (stereo unspecified)	-2.63%
Cc1cccc(NC(=O)c2csc(NCC(C)C)n2)n1	-14.8%
O=C(O)C1(n2cccn2)CCN(c2nc(-c3ccccc3)no2)CC1	0.502%
COc1cc(N2CCC3(CC2)OCC(=O)NC3C)ncn1 (stereo unspecified)	-4.57%

Compound	cytotoxicity at 70.5 h
Cc1nc(CN(C)C2CCN(CCC(=O)N3CCOCC3)C2)no1 (stereo unspecified)	15.9%
Cc1ncsc1CCCn1ccnc1-c1cc2n(n1)CCCNC2	-9.03%
CN(C)C(=O)NC1COC2(CCN(C(=O)c3ccc(Cl)cc3)CC2)C1 (stereo unspecified)	-8.31%
CCS(=O)(=O)c1ccc2oc([C@H]3CCN(Cc4cccnc4)C3)nc2c1	9.25%
Cc1ccccc1NS(=O)(=O)c1ccc(C(=O)O)cc1F	-2.98%
O=C(O)CSc1nccc(-c2ccc3c(c2)OCO3)n1	-7.09%
COc1ccccc1OCC(=O)N1CCC[C@]2(C[C@@H](OC)CO2)C1	10.6%
c1csc(CN2C[C@H]3CCC[C@@]3(COCC3CCOCC3)C2)n1	1.66%
COc1ccc(C(C)NCc2cscn2)cc1Cn1cccn1 (stereo unspecified)	-7.35%
CO[C@@H]1CN(c2ccccc2)S(=O)(=O)[C@@]12CCN(C)C2	-7.99%
Cc1noc(C)c1CC(=O)N1CCCN(Cc2cscn2)CC1	-2.59%
CCc1cc(=O)[nH]c(SCc2ccccn2)n1	-5.73%
OC1(CN2CCN(c3cccc(C(F)(F)F)c3)CC2)CNCCOC1 (stereo unspecified)	-12%
Cc1cccc(C(=O)NCc2ccc(CS(N)(=O)=O)cc2)n1	-16.5%
COC(=O)C1CCCCN1C(=O)c1ccccc1F (stereo unspecified)	-2.94%
N[C@H]1CN(Cc2cnc(N3CCCC3)nc2)C[C@@H]1C1CC1	-5.36%
CNC(=O)NCC1CCC2(CCN(C(=O)c3cccnc3)CC2)CO1 (stereo unspecified)	3.36%
COc1c(CNC2CCc3ccccc32)c(C)nn1C (stereo unspecified)	-10.5%
COCCN1CCCC2(CCN(c3ncc(Cl)cc3Cl)C2)C1=O (stereo unspecified)	-11%
CCNC(=O)NC1CN(Cc2ccncc2Cl)C[C@@H]1OC (stereo partly specified)	28.4%
CCc1ccc(OCC(=O)N2CCN(CC)CC2)cc1	-6.61%
Cc1ccc(-n2cc(C(=O)N3CCn4c(C)nnc4C3)nn2)cc1	26.8%
CC(C)Cc1noc(CN2CCN(C(=O)c3ccccc3F)CC2)n1	13.7%
Cn1cc(CNc2ccc(F)c(N3CCCS3(=O)=O)c2)cn1	-1.61%

Compound	cytotoxicity at 70.5 h
CSCCNC(=O)c1coc(COc2ccc(F)cc2)n1	7.74%
Cc1cc(C)nc(NCc2cc3n(n2)CCCN(C(=O)C2CCC2)C3)n1	-1.4%
O=C(c1nc2c(s1)CCCN2CC1CC1)N1CCCC1	-0.67%
Cc1cnn(C2CCCN(C(=O)c3ccc(N(C)C)nn3)C2)c1 (stereo unspecified)	-10.7%
O=S(=O)(C1CC1)N1CCC(Cn2cccn2)CC1	-7.23%
O=C(c1cccc(-c2ccc(F)cc2)c1)N1CCCC(O)(CO)CC1 (stereo unspecified)	9.52%
CCNC(=O)CN(CC)C(=O)Cc1csc(C(C)C)n1	-1.29%
O=C(c1cnc2ccc(F)cc2c1NCc1ccco1)N1CCCCC1	-9.21%
Cc1nn(-c2ccc(C(=O)O)cc2)c2c1C(CC(C)C)SCC(=O)N2 (stereo unspecified)	0.483%
CSc1nc2cc(C)n(CC(=O)Nc3nccs3)c2c(=O)n1CC(C)C	-6.26%
CNc1cc(N2CCCC2CNCc2csc(C)n2)ncn1 (stereo unspecified)	6.11%
O=C1N(Cc2ccc(Cl)cc2)CCC12CCCNC2 (stereo unspecified)	-12.9%
COc1cn(CC(N)=O)c(CSc2nc(C)cc(C)n2)cc1=O	59.2%
COCc1cccc(S(=O)(=O)N2CCSCC2)c1	14%
Cn1nc(Cn2ccnc2)c2c1CN(Cc1ccoc1)C2	24.7%
C[C@H](NC(=O)c1cnc(-c2ccccc2)nc1O)C(N)=O	-7.97%
O=C(COc1cccc(F)c1)N1C[C@@H](O)[C@H](N2CCCC2)C1	-10.1%
COc1cccc2c(=O)n(Cc3nc(C)cc(O)n3)cnc12	-12.5%
O=C(O)c1cc(-c2ccncc2)cc(S(=O)(=O)NCc2ccccn2)c1	-4.27%
CS(=O)(=O)NC[C@@H]1OC[C@H]2CN(C(=O)c3ccc[nH]3)CC[C@H]21	3.6%
CN(C)C(CNC(=O)c1ccnc(-n2cncn2)c1)c1ccccc1 (stereo unspecified)	-9.4%
COCCN1CCC(CN(CC2CCCO2)C(=O)COC)CC1 (stereo unspecified)	13.8%
CC(C)NC(=O)N1CCCC2(CCN(c3ccsc3)C2=O)C1 (stereo unspecified)	-12.5%
Cc1cc(C)nc(N2CCC(c3cccc(CCC(=O)O)n3)CC2)n1	-9.41%

Compound	cytotoxicity at 70.5 h
CCS(=O)(=O)N1CC(=O)N(Cc2ccccc2OC)CC(O)C1 (stereo unspecified)	17.6%
c1cnc(Nc2ccc(C3CCCCN3)cn2)cn1 (stereo unspecified)	-5.51%
O=C1CCC2(CCOC2)CN1Cc1nncn1CCc1ccccc1 (stereo unspecified)	4.96%
Cn1ncc2c1C(COCC1CC1)CN(Cc1ccc(F)cc1)C2 (stereo unspecified)	25.3%
CC(C)NC(=O)CCC(=O)N1CCC(c2noc3cc(F)ccc23)CC1	-17.2%
O=C(CCN1CCc2ccccc21)N1CC(C(=O)N2CCOCC2)C1	-5.25%
CN(Cc1nccn1C)CC1CCOc2ccccc2C1 (stereo unspecified)	22.3%
Cc1ccc(N2CCCC(N3CCN(CC(F)F)CC3)C2=O)cc1 (stereo unspecified)	-6.94%
CC(C)NC1CCCc2nc(-c3ccccc3)ncc21 (stereo unspecified)	-14.3%
COc1c(CNC2CCC(O)CC2)c(C(C)C)nn1C (stereo unspecified)	-5.04%
O=S(=O)(Nc1ccc2c(c1)OCCO2)N1CCCCC1	-0.954%
CCOCC1COCCC12CCN(C(=O)C1=CCCCC1)CC2 (stereo unspecified)	-4.56%
Cc1nc(N2CCCC2)nc2c1CN(C(C)C)CC2	-12.7%
O=C(c1ccco1)N1C[C@H]2CCCN(Cc3cccs3)[C@H]2C1	7.1%
Cc1ccsc1CN(C)C(=O)C1CCCN(C(N)=O)C1 (stereo unspecified)	-8.56%
Cc1nc(N2CCOCC2)nc(C)c1NC(=O)Cc1ccc(Cl)cc1	13.5%
Cc1cnc(CN(C)C2CCN(CC(=O)N(C)c3nccs3)C2)o1 (stereo unspecified)	42.1%
COc1ncc(-c2ccc(O)cc2)c(OC)n1	-6.77%
COCCCn1ccc(NCc2cnc(C(C)(C)C)s2)n1	27.4%
Fc1ccc(OCCCNC2=NCCCN2)cc1	-5.27%
Cc1nc(CN2CCCC(N(C)Cc3nnc(C4CC4)o3)C2)no1 (stereo unspecified)	13.8%
CCNC(=O)NC(=O)CNC(C)(CC)c1nc(C)cs1 (stereo unspecified)	-4.63%
N#Cc1ccccc1N1CC2(CCCCN2CC2CC2)CC1=O (stereo unspecified)	7.89%
Cn1nc(C2CCN(C(=O)c3cccs3)CC2)c2cccnc21	-4.94%

Compound	cytotoxicity at 70.5 h
COc1ccc(C2CC(=O)Nc3nc(N4CCOCC4)sc32)c(OC)c1 (stereo unspecified)	-21.3%
Cc1nn(C)c(N2CCOCC2)c1CNCc1ccccc1CO	-10.1%
O=C1N(c2cccnc2)CCC12CCCN(Cc1ccco1)C2 (stereo unspecified)	-3.89%
CN(C)C(=O)CN1CCc2ncnc(N(C)C)c2CC1	-6.04%
OCCOCc1nnn2c1CN(c1ncccn1)CCC2	8.18%
CCOC(C)c1nc(CN2CCN(Cc3cccnc3)CC2)cs1 (stereo unspecified)	-4.18%
COCCCn1ccc(NC(=O)NCCCn2ccnc2)n1	-18.9%
CCn1cnnc1C1CCN(C(=O)c2ccccc2OC)CC1	-8.77%
COc1cccc(C(=O)Nc2ccc(OC3CCN(C)CC3)cc2)c1	-4.5%
COc1c(CNC(C)C(=O)NC2CCCC2)c(C(C)C)nn1C (stereo unspecified)	-6.92%
O[C@@H]1C[C@H]2CN(Cc3ccsc3)[C@@H](Cc3ccccc3)CN2C1	-1.32%
CSC(C)C(=O)N1CCCN(Cc2nccn2C)CC1 (stereo unspecified)	-1.04%
CN(C)C(=O)Cc1ccccc1NCc1cccc2cccnc12	57.4%
CSc1nccc(N2CCC(NCc3ccc4c(c3)OCO4)CC2)n1	4.69%
O=C(C1CC=CC1)N1C[C@@H](OCc2cccnc2)[C@H]2OCCC[C@H]21	11.2%
CCc1nc(N)sc1C(=O)N1CCCC(CCc2ccccc2C)C1 (stereo unspecified)	-6.29%
CSCc1noc(CNC(=O)C2CCN(C(C)C)CC2)n1	-12%
O=C(NCCOc1ccc(C(F)(F)F)cn1)c1ccoc1	-6.01%
CC1(c2ncc(CN3CCSCC3)cn2)CCCCO1 (stereo unspecified)	-11.9%
CC(C(=O)NCCN1CCOCC1)n1cncn1 (stereo unspecified)	-11.7%
